Measured values from patent US5614192A, “T cell receptor peptides as therapeutics for immune-related disease” (Connective Therapeutics, Inc., priority 1993, dated 1997).
“And” between values parts separate entries of the source, which are not always exact repeats. Equal entries are not always repeated. Marks after values point to notes of the source that are not given here. Ends that are not written are not given here.

Assays:
TCR Vβ 8(39-59) = format: binding, rat
Gp-S49S = biological target: T1, Gp-S49S (Cavia porcellus, UniProt P25188); experiment: Direct ELISA, antibody reactivity (Example VII); format: binding, guinea pig
T1 construct: Peptide Gp-S49S defines region 69-84 of GPBP and has a C-terminal glycine; made in house; host or cells: chemical solid-phase synthesis

DTH response = experiment: Delayed hypersensitivity responses to TCR peptides, ear swelling (Table 26); format: in vivo, Lewis rats
[1] = tested on: T cell lines derived from rats protected from EAE; experiment: Proliferation of LN cells and T cell lines from rats protected by TCR Vβ8 peptide (Table 12); format: cell-based, rat
EAE [2] = experiment: Prevention and suppression of EAE by immunization with TCR Vβ8(39-59) (Table 17); format: in vivo, Lewis rats
Gp-(S87-99) = biological target: T2, Gp-(S87-99) (Cavia porcellus, UniProt P25188); experiment: Direct ELISA, antibody reactivity (Example VII); format: binding, guinea pig
T2 construct: made in house; host or cells: chemical solid-phase synthesis

EAE [3] = experiment: Prevention of EAE by immunization with TCR peptide (Example VI); format: in vivo, Lewis rats
Text: EAE is a well-recognized rat model of the human autoimmune disease, multiple sclerosis. […] In this model, the disease is induced by injecting the subject rat with an encephalitogenic form of myelin basic protein, such as, for example, guinea pig basic protein (GPBP) or a synthetic peptide that corresponds to residues 72-89 of GPBP (GPBP(72-89)). Injection of either of these peptides in complete Freund's adjuvant (CFA) induces encephalitogenic T cell clones that utilize preferentially the rat homologs of mouse TCR Vα2 and Vβ8 genes (Chou, Y. K., et al., J. Neurosci. Res. 22:181-187 (1989); Burns, F. R., et al., J. Exp. Med. 169:27-39 (1989)).
^1 EAE was induced by SC challenge with 50 μg GPBP + 400 μg
^2 Rats were injected SC with either: (1) 100 μg of the TCR peptid
^3 Values represent the mean of the maximum severity of EAE. 0, no

EAE [4] = experiment: Clinical EAE in rats treated with TCR Vβ8(39-59) before or after onset (Table 22); format: in vivo
Description: The ability of the TCR Vβ8(39-59) given either SC (in adjuvant) or ID (in saline) to disrupt the disease process when given at various times after induction of EAE with GPBP was tested (Table 22). […] In both cases, with both routes of injection of the peptide, there was a significant reduction in the duration of the disease, though not in the severity or time of onset. The efficacy of the peptide given in saline via the ID route is of particular importance to human therapy, as it is preferred to SC injection in adjuvant.
In Experiment 2, the time of ID administration of the TCR peptide was varied, as was the dose. […] A delay in onset of the disease was also observed. Furthermore, the percentage of animals showing signs of the disease decreased. A larger dose of the peptide (200 μg) appeared less efficacious than the lower dose, possibly due to a short-term overload of the peptide which could have comprised the immune response generated against the TCR. Treatment with a similarly sized peptide corresponding to an irrelevant TCR had no effect on onset, severity or incidence of EAE, but may have reduced the duration somewhat (last line of Table 22).

LNC and T cell lines = experiment: T cell proliferation after treatment of EAE with TCR Vβ8 39-59/CFA (Table 27); format: cell-based, rats
Description: Lymphocyte Proliferation: Activation of T cells was measured by ^3 H-Tdy uptake. 500,000 lymph node cells or 20,000 line cells in the presence of 1 million irradiated thymic accessory cells were incubated with culture medium and antigens in microtiter wells for 18 hours prior to the addition of 0.5 μBq labeled thymidine. The cell cultures were harvested onto glass fiber filters and counted by liquid scintillation techniques. Mean CPM were calculated from triplicate cultures. Standard deviations (SD) from replicate cultures varied <10% from the mean value.
^a Treated rats were injected s.q. with 50 μg TCR Vβ839-59
^b LW cells collected after the untreated group recovered from EAE

[5] = tested on: lymph node cells and Vβ8-44-54 selected T cell line
TCR Vβ8(39-59) peptide = format: binding, rat
[6] = TCR day 0, Gp-S(87-99) d. 44, bleed d. 65, 1:320
[7] = TCR peptide d. 0, Gp-S49S d. 48, bleed d. 74, 1:80
[8] = peptide day 0, Gp-(S87-99) challenge day 44
[9] = peptide day 0, Gp-S49S challenge day 44
[10] = Exp. 1, 100 μg SC in CFA, day 10
[11] = Exp. 1, 100 μg SC in CFA, day 13

## DMGHGLRLIHYSYDVNSTEKG [TCR Vβ8(39-59), 21-amino acid CDR2 peptide of rat TCR Vβ8]
TCR Vβ 8(39-59)
  Antisera Reactivity Against TCR Vβ 8 (39-59): 629 and 621
Gp-S49S; TCR d. 0, Gp-S49S d. 48, bleed d. 74
  Theoretical Absorbance against Gp-S49S normalized to 1:40: 1750 Absorbance (×10^3)
Gp-S49S; [6]
  Antisera Reactivity Against Gp-S49S: 38 Absorbance (×10^3)
Gp-S49S; [7]
  Antisera Reactivity Against Gp-S49S: 875 Absorbance (×10^3)
Gp-S49S; preimmunized with TCR peptide vs rats not treated
  elevation of 26 day antibody responses to Gp-S49S and Gp-S53: two to four fold
DTH response; GP-BP/CFA immunized rats, ear test Day 12 (EAE onset)
  48 Hour DTH Response: 11 ± 2
DTH response; Normal or saline/CFA rats, ear test Day 12
  48 Hour DTH Response: 6 ± 3
DTH response; TCR Vβ8 peptide/CFA immunized rats, ear test Day 30
  48 Hour DTH Response: 36 ± 8
DTH response; TCR Vβ814 (so in the source) peptide/CFA immunized rats, ear test Day 30
  48 Hour DTH Response: 6 ± 3
[1]; 1st value column (head not given; LN cells of protected rats)
  T Cell Proliferation: 27 cpm × 10^-3
[1]; 2nd value column (head not given, TCR Vβ8(39-59)-selected line)
  T Cell Proliferation: 100 cpm × 10^-3
[1]; 4th value column (head not given; mixed TCR- and BP-specific T cells)
  T Cell Proliferation: 140 cpm × 10^-3
[1]; +OX-6 (anti I-A)
  T Cell Proliferation: 99 cpm × 10^-3
[1]; +OX-8 (anti-CD8)
  T Cell Proliferation: 22 cpm × 10^-3
[1]; +OX-17 (anti I-E)
  T Cell Proliferation: 100 cpm × 10^-3
[1]; +OX-18 (anti class 1)
  T Cell Proliferation: 31 cpm × 10^-3
[1]; +W3/25 (anti-CD4)
  T Cell Proliferation: 105 cpm × 10^-3
[1]; GPBP-selected line
  T Cell Proliferation: 1 cpm × 10^-3
EAE [2]; 100 μg peptide/CFA day 0, GPBP (50 μg) challenge day 0
  Clinical Score: 0.7 ± 0.3
EAE [2]; 100 μg peptide/CFA day 0, Gp-S49S (100 μg) challenge day 0
  Clinical Score: 0.5
EAE [2]; [8]
  Clinical Score: 0.0
  Histological Score Br: 0.5 ± 0.6
  Histological Score Sc: 0.8 ± 0.5
EAE [2]; [9]
  Clinical Score: 0.8
  Histological Score Br: 1.8 ± 1.7
  Histological Score Sc: 2.8 ± 1.0
Gp-(S87-99); TCR day 0, Gp-S(87-99) d. 44, bleed d. 65
  Theoretical Absorbance against Gp-(S87-99) normalized to 1:40: 784 Absorbance (×10^3)
Gp-(S87-99); [6]
  Antisera Reactivity Against Gp-(S87-99): 348 Absorbance (×10^3)
Gp-(S87-99); [7]
  Antisera Reactivity Against Gp-(S87-99): 11 Absorbance (×10^3)
Gp-(S87-99); preimmunized with TCR peptide vs not treated
  increase of anti-S87-99 responses: > 4 fold
EAE [3]; 100 μg peptide/CFA SC 30 days before challenge with 50 μg GPBP/CFA
  EAE Incidence: 0/10
EAE [3]; Lewis rats
  protection from EAE: prevented completely the induction of EAE
EAE [4]; Exp. 1, 50 μg ID, day 13
  Day of Onset: 13.4 ± 0.5
  Disease Duration: 3.2 ± 0.5
  Disease Incidence: 5/5
  Disease Severity: 2.6 ± 0.4
EAE [4]; [10]
  Day of Onset: 14.0 ± 0.4
  Disease Duration: 3.2 ± 0.4
  Disease Incidence: 5/5
  Disease Severity: 2.8 ± 0.4
EAE [4]; [11]
  Day of Onset: 13.0 ± 0
  Disease Duration: 4.0 ± 0
  Disease Incidence: 5/5
  Disease Severity: 3.0 ± 0
EAE [4]; Exp. 2, 50 μg ID, day 7
  Day of Onset: 15.0 ± 0.8
  Disease Duration: 2.0 ± 2.0
  Disease Incidence: 4/6
  Disease Severity: 1.7 ± 1.4
EAE [4]; Exp. 2, 50 μg ID, day 14
  Day of Onset: 16.0 ± 1.
  Disease Duration: 2.3 ± 2.0
  Disease Incidence: 4/6
  Disease Severity: 1.7 ± 1.5
EAE [4]; Exp. 2, 50 μg, day 0
  Day of Onset: 15.6 ± 2.6
  Disease Duration: 2.3 ± 1.6
  Disease Incidence: 5/6
  Disease Severity: 1.8 ± 1.0
EAE [4]; Exp. 2, 200 μg ID, day 13
  Day of Onset: 14.0 ± 1.4
  Disease Duration: 3.0 ± 1.2
  Disease Incidence: 6/6
  Disease Severity: 2.3 ± 0.8
LNC and T cell lines; GP-MBP-selected line from TCR peptide-treated rats
  net proliferation of reactive cells: 49,000 CPM
LNC and T cell lines; GP-MBP-selected line from untreated EAE-recovered rats
  net proliferation of reactive cells: 9,000 CPM
LNC and T cell lines; Treated rats (TCR Vβ8 39-59/CFA at onset), LNC
  Proliferation: 39 ± 4 CPM/1000
LNC and T cell lines; Treated rats, line BP/1st
  Proliferation: 66 ± 6 CPM/1000
LNC and T cell lines; Treated rats, line Vβ8/1st
  Proliferation: 85 ± 2 CPM/1000
LNC and T cell lines; Untreated rats (GPBP/CFA only), LNC
  Proliferation: 34 ± 4 CPM/1000
LNC and T cell lines; Untreated rats, line BP/1st
  Proliferation: 24 ± 3 CPM/1000
LNC and T cell lines; Untreated rats, line Vβ8/1st
  Proliferation: 34 ± 2 CPM/1000
LNC and T cell lines; Untreated rats, line Vβ14/1st
  Proliferation: 11 ± 1 CPM/1000
[5]
  Response of Lymph Node Cells: 38 ± 3
  Response of T Cell Line: 102 ± 10
TCR Vβ8(39-59) peptide
  absorbance of serum on TCR Vβ8(39-59) peptide (A405): 0.63±0.12 units
